Experimental data published in PMC8494917 (2021).
Each block holds one compound with its values, some of them ahead of it.

How the values were obtained:
[1] = test system: Bs-preQ1-RS (RNA, riboswitch) AGAGGUUCUAGCUACACCCUCUAUAAAAAACUAA; test: UV photocrosslinking, denaturing PAGE; settings: 100 mM K+, 2 mM Mg2+, 50 mM Tris pH 7.5, 5% DMSO, room temperature, 5 µM RNA, 250 µM compound, covalent
[2] = test system: Ss-preQ1-RS (RNA, riboswitch) AGAGGUUCCUAGCUGAUACCCUCUAUAAAAAACUA; test: UV photocrosslinking, MALDI-TOF; settings: 100 mM K+, 2 mM Mg2+; 10 µM RNA, 500 µM compound; covalent
[3] = test system: Bs-preQ1-RS full length (RNA, riboswitch) GCGGGAGAGGUUCUAGCUACACCCUCUAUAAAAAACUAGGACGAGCUGUAUCCUUGGAUACGGCCUUUU; test: competition of photocrosslinking, TAMRA click labelling, PAGE; settings: 100 mM K+, 2 mM Mg2+; probe 11 (250 µM) displaced by 500-1000 µM PreQ1, in MCF-7 total RNA
[4] = test system: Cy5-Tt-preQ1-RS (RNA, riboswitch) CUGGGUCGCAGUAACCCCAGUUAACAAAACAAG; test: microscale thermophoresis; settings: 100 mM K+, 2 mM Mg2+, 50 mM Tris-HCl pH 7.5, 5% DMSO, room temperature, 100 nM RNA
[5] = test system: Cy5-Bs-preQ1-RS (RNA, riboswitch) AGAGGUUCUAGCUACACCCUCUAUAAAAAACUAA; test: microscale thermophoresis; settings: 100 mM K+, 2 mM Mg2+, 50 mM Tris-HCl pH 7.5, 5% DMSO, room temperature, 100 nM RNA
[6] = test system: Ss-preQ1-RS (RNA, riboswitch) AGAGGUUCCUAGCUGAUACCCUCUAUAAAAAACUA; test: competition of photocrosslinking, PAGE; settings: 100 mM K+, 2 mM Mg2+; 50 mM Tris pH 7.5; probe 11 (250 µM) displaced by 125-1250 µM PreQ1
[7] = test system: Tt-preQ1-RS (RNA, riboswitch) CUGGGUCGCAGUAACCCCAGUUAACAAAACAAG; test: X-ray crystallography, 2.80 Å; settings: without photocrosslinking
[8] = test system: Ss-preQ1-RS (RNA, riboswitch) AGAGGUUCCUAGCUGAUACCCUCUAUAAAAAACUA; test: UV photocrosslinking, denaturing PAGE; settings: 100 mM K+, 2 mM Mg2+; 50 mM Tris pH 7.5, room temperature; 5 µM RNA, 25-250 µM compound; covalent
[9] = test system: Tt-preQ1-RS(G5A) (RNA, riboswitch) CUGGAUCGCAGUAACCCCAGUUAACAAAACAAG; test: UV photocrosslinking, denaturing PAGE; settings: 100 mM K+, 2 mM Mg2+; 50 mM Tris pH 7.5; 10 µM RNA, 500 µM compound; covalent; similar to wild type
[10] = test system: SAM-II-WT-RS (RNA, riboswitch) UCGCGCUGAUUUAACCGUAUUGCAAGCGCGUGAUAAAUGUAGCUAAAAAGGG; test: UV photocrosslinking, denaturing PAGE; settings: 100 mM K+, 2 mM Mg2+; 50 mM Tris pH 7.5; 50:1 compound:RNA; covalent crosslink not detected
[11] = test system: miR21-hp (RNA, miRNA) GGGUUGACUGUUGAAUCUCAUGGCAACCC; test: UV photocrosslinking, denaturing PAGE; settings: 100 mM K+, 2 mM Mg2+; 50 mM Tris pH 7.5; 50:1 compound:RNA; covalent crosslink not detected
[12] = test system: Bs-preQ1-RS full length (RNA, riboswitch) GCGGGAGAGGUUCUAGCUACACCCUCUAUAAAAAACUAGGACGAGCUGUAUCCUUGGAUACGGCCUUUU; test: UV photocrosslinking, TAMRA click labelling, PAGE; settings: 100 mM K+, 2 mM Mg2+; 50 mM Tris pH 7.5, 5% DMSO; 1 µM RNA, 250 µM compound; covalent
[13] = test system: Tt-preQ1-RS (ab 13_14) (RNA, riboswitch, abasic at 13 and 14) CUGGGUCGCAGUNNCCCCAGUUAACAAAACAAG; test: X-ray crystallography, 1.57 Å; settings: without photocrosslinking
[14] = test system: Tt-preQ1-RS(G11A) (RNA, riboswitch) CUGGGUCGCAAUAACCCCAGUUAACAAAACAAG; test: UV photocrosslinking, denaturing PAGE; settings: 100 mM K+, 2 mM Mg2+; 50 mM Tris pH 7.5; 10 µM RNA, 500 µM compound; covalent; similar to wild type
[15] = test system: Tt-preQ1-RS(G4A) (RNA, riboswitch) CUGAGUCGCAGUAACCCCAGUUAACAAAACAAG; test: UV photocrosslinking, denaturing PAGE; settings: 100 mM K+, 2 mM Mg2+; 50 mM Tris pH 7.5; 10 µM RNA, 500 µM compound; covalent; about 40% less than wild type

SMILES: Nc1nc2[nH]cc(CNCCC3(CCc4cn(CCOCCOCCOCCNC(=O)CCCC[C@@H]5SC[C@@H]6NC(=O)N[C@@H]65)nn4)N=N3)c2c(=O)[nH]1
binding [2]: yes

SMILES: CC1(CCC(=O)NCc2c[nH]c3nc(N)[nH]c(=O)c23)N=N1
% Crosslink efficiency [1]: 49.2 ± 3.2%

SMILES: NCc1c[nH]c2nc(N)[nH]c(=O)c12
binding [3]: yes
apparent dissociation constant [4]: 0.193 ± 0.04523 µM
apparent dissociation constant [5]: 0.243 ± 0.01639 µM
binding [6]: yes

SMILES: C#CCCC1(CCNCc2c[nH]c3nc(N)[nH]c(=O)c23)N=N1
binding [7]: yes
binding [8]: yes
binding [9]: yes
binding [10]: no
apparent dissociation constant ([4]; about 50 x K of PreQ1): 11.03 ± 2.98 µM
binding [11]: no
apparent dissociation constant ([5]; about 50 x K of PreQ1): 8.25 ± 2.56 µM
binding [12]: yes
binding [13]: yes
binding [14]: yes
binding [15]: yes
% Crosslink efficiency [1]: 31.3 ± 2.9%

More lines, now with the values ahead:

% Crosslink efficiency [1]: 19.4 ± 4.4%
SMILES: Nc1nc2[nH]cc(CNCCOCCOCCOCCNCc3ccc(C4(C(F)(F)F)N=N4)cc3)c2c(=O)[nH]1

% Crosslink efficiency [1]: 22.0 ± 2.2%
SMILES: Nc1nc2[nH]cc(CNCCOCCOCCNCc3ccc(C4(C(F)(F)F)N=N4)cc3)c2c(=O)[nH]1

% Crosslink efficiency [1]: 39.9 ± 5.3%
SMILES: C#CCCC1(CCC(=O)NCc2c[nH]c3nc(N)[nH]c(=O)c23)N=N1

binding ([1]; trace only): weak
SMILES: Nc1nc2[nH]cc(CNCc3ccc(C4(C(F)(F)F)N=N4)cc3)c2c(=O)[nH]1
